According to paper PMC9688808, “Discovery of Novel Lin28 Inhibitors to Suppress Cancer Cell Stemness” (Cancers, 2022):

What was measured:
Lin28A ZKD = molecular target: T1, Lin28A ZKD (Homo sapiens, UniProt Q9H9Z2); experiment: Fluorescence polarization (FP) assay, Lin28A ZKD with FAM-labeled Let-7 probe; type: binding; settings: for suppression of FP signals: Lin28A ZKD; for IC50: 10 uM Lin28A ZKD, 1 nM FAM-labeled Let-7 probe, 1 nM–200 uM compound
T1 construct: Lin28A ZKD (aa121-187); His-tag; made in house; host or cells: Escherichia coli BL21
T1 sequence (Q9H9Z2 121-187): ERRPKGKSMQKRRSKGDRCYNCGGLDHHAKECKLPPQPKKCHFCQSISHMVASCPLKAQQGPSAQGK
Excerpt: (§1) ZINC compounds were purchased from Enamine (Kyiv, Ukraine), Life Chemicals Ltd. (Kyiv, Ukraine), or Princeton Biomolecular Research (Princeton, NJ, USA) with >90% purity. Upon receiving the compounds, the molecular masses were validated by LC/MS/MS. His-tagged human Lin28B ZKD (aa110-174), Lin28B CSD+ZKD (aa7-204), and Lin28A ZKD (aa121-187) were expressed in Escherichia coli BL21 cells and purified by immobilized metal ion affinity chromatography (IMAC) with nickel nitrilotriacetic acid (NiNTA) resin and size exclusion chromatography (s75 10/300 GL) as we have previously reported.
(§2) The fluorescein amidites (FAM)-tagged Let-7 probe with the sequence of […] was purchased from Integrated DNA Technologies (IDT). The probe at the concentrations ranging from 1 nM to 50 uM was incubated with Lin28B (ZKD) or Lin28 (CSD+ZKD) to a final volume of 30 uL at room temperature for 20 min. To read the fluorescence, a TECAN 500 machine was used. Fluorescence polarization was calculated using the following equation: P=Fparrallel−Fperpendicular/Fparrallel+Fperpendicular where P is the fluorescence polarization reading, F parallel is the fluorescence intensity acquired from the parallel excitation plane, and F perpendicular is the fluorescence intensity acquired from the perpendicular direction of the excitation plane. The total fluorescence intensity is estimated using the following equation: F=Fparallel+2Fperpendicular
(§3) All the raw FP signal data from the TECAN 500 FP results were analyzed using Prism 8.0 (GraphPad, San Diego, CA, USA); normalized curves were plotted and IC50 values were estimated. All FP data were repeated three to five times.
Figure 5 Lin28 inhibitors block the Lin28A isoform. (A) EMSA used 10 nM of IR800DyeCWN-labeled Let-7 probe (lane 1), 0.5 uM Lin28A ZKD protein with 10 nM of labeled Let-7 probe (lane 2), or Lin28A ZKD, labeled Let-7 probe and 100× non-labeled competitor probe (lane 3). EMSA used Lin28A ZKD, labeled Let-7 probe, and 100–1200 uM of indicated compounds (lanes 4–10). (B) FP assays were performed by using 10 uM of Lin28A ZKD, 1 nM of FAM-labeled Let-7 probe, and 1 nM–200 uM of compounds. (C) Lin28A-positive IGROV1 cells were treated with 20 uM of the indicated compound for 48 h. Real-time qPCR measured RNA levels of Let-7d, SOX2, and HMGA2. Three biological replicates were performed and all results are presented as mean +/− SD. p-value ≤ 0.05—(*); ≤0.01—(**); ≤0.001—(***).

DUNE cells = experiment: Colony formation assay, DUNE cells; type: cell-based; settings: 20 uM (Figure 7C)
Experimental: There are several standard molecular techniques, including real-time qPCR, flow cytometry, cell proliferation, colony formation, and immunoblotting assays, that have been reported previously by our lab.
Figure 7 Lin28 inhibitors block CSC phenotypes of cancer cells. (A) FACS analysis using CD44 and CD133 antibodies detected CSC cell populations from DUNE or DUNE (KO) cells treated with either vehicle or 20 uM of Ln7, Ln15, and Ln115 for 48 h. (B) DUNE, DUNE (KO), and IGROV1 cell proliferation were measured in the presence of 20 uM of Ln7, Ln15, and Ln115. (C) Colony formation assays (colonies >[…] were counted) measured the suppressive effects of Ln7, Ln15, and Ln115 at the concentration of 20 uM. p-value ≤ 0.01—(**); ≤0.001—(***).
Figure S4. A. Colony formation assays: DUNE cells were seeded in 500 cells/well. Chemicals were added one day after cell seeding (n=3 wells/chemical). Medium with chemical at the concentration of 60uM was changed every four days for 14 days. […]
0.005% crystal violet staining for 2 hours. ImageJ was used to analyze colony size and numbers (circularity was set at 0.5 -1, which is equivalent to 50uM in size). Only colonies larger than […]
50uM were countered. […]
(1 picture or pasted object on this page, not shown here)

Lin28B CSD+ZKD = molecular target: T2, Lin28B CSD+ZKD (Homo sapiens, UniProt Q6ZN17); experiment: Fluorescence polarization (FP) assay, Lin28 CSD+ZKD with FAM-labeled Let-7 probe; type: binding; settings: 20 uM compound; for inhibition at 20 µM: read-out: inhibition of FP signals
T2 construct: Lin28B CSD+ZKD (aa7-204); His-tag; made in house; host or cells: Escherichia coli BL21
T2 sequence (Q6ZN17 7-204): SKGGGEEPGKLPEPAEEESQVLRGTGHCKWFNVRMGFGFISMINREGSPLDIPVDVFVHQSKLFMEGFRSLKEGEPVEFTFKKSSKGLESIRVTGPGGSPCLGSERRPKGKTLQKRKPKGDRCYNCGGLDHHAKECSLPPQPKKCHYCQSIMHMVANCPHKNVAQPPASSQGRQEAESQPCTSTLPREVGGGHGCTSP
Excerpt: as §1, §2, §3
To test the predicted compounds by CADD, we established an FP assay using both Lin28B ZKD and Lin28B CSD+ZKD to be incubated with a FAM-labeled Let-7 oligo containing the GGAG motif. To validate that the signals obtained from FP assays reflect the interaction between Lin28 and Let-7, we have tested: (1) 1 nM–50 uM FAM-labeled Let-7 probes with 10 uM Lin28 proteins and observed a dose-dependent reduction of FP signal; (2) 1 nM FAM labeled Let-7 probes with 1 nM–50 uM Lin28 proteins and observed a dose-dependent increase of FP signal; (3) 1 nM–50 uM doses of non-labeled Let-7 oligo to be incubated with 1 nM FAM probe and 10 uM Lin28 proteins, and observed a dose-dependent reduction of FP signal (Figure 2A,B).
We then screened all 163 molecules predicted by the CADD pipeline by using the FP assays with 10 uM of Lin28B ZKD protein and 1 nM of FAM-labeled Let-7 probe. Compounds Li71 and 1632 were also included and served as positive controls. We used 60% inhibition of FP signals by 20 uM of the tested compounds as the cut-off and found 15 active compounds achieving a hit rate of 9% (15/163) (Figure 2C left). […]

Compound	suppression of FP signals (Lin28A ZKD)	formation of cancer cell colonies (DUNE cells)	inhibition at 20 µM (Lin28B CSD+ZKD)	IC50 (Lin28A ZKD)	suppressive effect on colony formation (DUNE cells; colonies >50 uM counted)	inhibition of FP signals (Lin28B CSD+ZKD)
CC(=O)N(C)c1cccc(-c2ccc3nnc(C)n3n2)c1 [compound 1632, reference compound]	mild inhibitions	strongly suppressed	–	–	–	–
O=c1cccc(-c2nc3cc(F)c(O)cc3c(=O)[nH]2)[nH]1 [Ln115]	–	strongly suppressed	~20%	12.2 µM	–	–
O=c1[nH]c(Nc2ccccc2O)cs1 [Ln15]	–	strongly suppressed	~50%	9.1 µM	~ 90%	–
CCOc1cccc2c1N[C@@H](c1ccc(C(=O)O)cc1)[C@H]1CC=C[C@@H]21 [Li71, reference compound]	mild inhibitions	strongly suppressed	–	–	–	~ 30%
CCc1cc(=O)[nH]c(Nc2cc(Cl)ccc2O)n1 [Ln7]	–	strongly suppressed	~50%	27.4 µM	–	–
